# Data: patent publication US20140295012A1, “LATENT HUMAN IMMUNODEFICIENCY VIRUS REACTIVATION” (priority 2011, published 2014)
# *1 amine or outer side, *2 acyl side, *3 side chain or, on linkers, in order; H or OH if unused. Where a SMILES comes first, the peptide text is derived from it. Bridges are numbered along the chain shown (N, C = ends). Roman numbers before positions name the chains, in order. [ ]: non-standard residue; d: D form. Actinocin(9to1) = Cc1c2oc3c(C)ccc(C(=O)[*:1])c3nc-2c(C(=O)[*:2])c(N)c1=O; NMeV = CN[C@H](C(=O)O)C(C)C; Sar = CNCC(=O)O
# What was measured:
# [1] = system: latently HIV-1 infected EF7 cells; assay: Priming of latent HIV-1 infection in EF7 T cells (converse sense integration); type: cell-based; conditions: 4 ng/ml, 18 hours pretreatment
# Experimental: FIGS. 13A-B show the effect of dactinomycin on latent infection as a function of the orientation of integration relative to the direction of host-gene transcription. HIV-1 can integrate in the same transcriptional orientation as the host-gene or in the converse sense. Two latently HIV-1 infected T cell lines, which were determined to have HIV-1 integrated in the same sense orientation (CA5 cells) (FIG. 13A) and in the converse sense orientation (EF7 cells) (FIG. 13B) were used. For either cell line, the host-gene name, the position of integration and the chromosome number is given. For either T cell line, reactivation levels achieved by TNF-α treatment alone or by TNF-α stimulation following pretreatment with 4 ng/ml dactinomycin for 18 hours are shown. Reactivation levels were determined using flow cytometric analysis for GFP expression. The gray dotted line represents maximum achievable reactivation levels using PMA.
# The sense of orientation of the integrated latent virus, relative to the transcriptional direction of the host-gene, was investigated to determine whether the orientation would influence the ability of dactinomycin to prime latent infection for reactivation. […]
# P-TEFb/HEXIM-1 complex = assay: Glycerol gradient sedimentation analysis of P-TEFb/HEXIM-1 complex in J89GFP cells (Western blot); type: cell-based
# Experimental: J89GFP cells were left untreated, treated with a high concentration of dactinomycin for 1 hour or with the physiological optimal concentration (0.004 μg/ml or 0.01 μg/ml) for 18 hours. Cell lysates were separated on a glycerol gradient (10-45%). Each gradient fraction was separated on a 10% SDS-PAGE gel and transferred by Western blot. […] Band densities were determined using ImageJ and are presented as relative band density. […] Band densities were determined using ImageJ and are presented as relative band density.
# Ten million J89GFP or CA5 T cells were left untreated or treated with 0.004 μg/mL, 0.01 μg/ml or 1 μg/mL dactinomycin for 18 hours or 1 hour, respectively. Cells were washed twice with cold PBS, then lysed for 30 minutes on ice in lysis buffer (0.5% TritonX100, 20 mM HEPES (pH7.9), 150 mM NaCl, 20 mM KCl, 2 mM MgCl2, 1 mM DTT, 0.2 mM EDTA, and protease inhibitor cocktail (P8340; SIGMA)), followed by centrifugation at 14,000 rpm for 10 minutes. The same amount of protein lysate was fractionated on 5 ml of a 10-45% glycerol gradient in lysis buffer in a SW-Ti55 rotor (Beckman Coulter; Miami, Fla.) for 16 hours at 45,000 rpm. Fractions were resolved on 10% SDS-PAGE and transferred to polyvinylidene fluoride membrane. The antibodies used for Western blotting were rabbit anti-Cdk9 (sc-484; Santa Cruz Biotechnology; Santa Cruz, Calif.) and rabbit anti-HEXIM1 (ab25388; Abcam; Cambridge, Mass.), respectively.
# To test the idea that dactinomycin primed latent HIV-1 infection for reactivation by releasing P-TEFb (a complex of CDK9 and Cyclin T1) from its complex with HEXIM-1, the latently HIV-1 infected J89GFP or CA5 T cells were treated with 1.0 μg/ml dactinomycin for 1 hour or with the physiological optimal concentration of 0.004 μg/ml for 18 hours. Cell lysates were then separated on a glycerol gradient (10-45%) to reveal possible changes in the composition of the P-TEFb/HEXIM-1 complex. […] Each gradient fraction was separated on a SDS-PAGE gel and subjected to Western blotting. […] Similar results were obtained using anti-HEXIM-1 antibody. […] The minimal dactinomycin concentration to induce a shift towards the small complex was 0.01 μg/ml of dactinomycin. […] Similar results were obtained using the latently infected CA5 T cells.
structure (smiles),measurement,setting,value
"Cc1c2oc3c(C)ccc(C(=O)N[C@@H]4C(=O)N[C@H](C(C)C)C(=O)N5CCC[C@H]5C(=O)N(C)CC(=O)N(C)[C@@H](C(C)C)C(=O)O[C@@H]4C)c3nc-2c(C(=O)N[C@@H]2C(=O)N[C@H](C(C)C)C(=O)N3CCC[C@H]3C(=O)N(C)CC(=O)N(C)[C@@H](C(C)C)C(=O)O[C@@H]2C)c(N)c1=O [dactinomycin] (I: T[dV]P[Sar][NMeV] / II: T[dV]P[Sar][NMeV]; ester I:1-I:C, II:1-II:C; linker I:N-II:N via Actinocin(9to1))",priming effect for reactivation by TNF-α,[1],exerted its priming effect in each integration scenario
same,shift of CDK9 from large to small complex,P-TEFb/HEXIM-1 complex; 0.004 μg/ml for 18 hours,shift of CDK9 presence from the large complex to the small complex was also detected
same,shift of HEXIM-1 towards the small complex,P-TEFb/HEXIM-1 complex; 0.004 μg/ml for 18 hours,no shift towards the small complex was observed
same,release of P-TEFb from its complex with HEXIM-1 (anti-CDK9),"P-TEFb/HEXIM-1 complex; 1 μg/ml for 1 hour, J89GFP",quantitatively released P-TEFb
same,minimal concentration to induce a shift of HEXIM-1 towards the small complex,P-TEFb/HEXIM-1 complex; 18 hours,0.01 µg/mL
